Here are results for 8 molecules from ChEMBL document CHEMBL1147278, “Pharmacologically Active Metabolites from Symbiotic Microalgae in Okinawan Marine Invertebrates” (J Nat Prod, 1989).

Molecules are shown by their SMILES. In brackets after ≈: the same amount, converted by molar mass.

Assay [1] is described as follows: Inhibition of sodium potassium ATPase activity.
The next assay has as its system L1210. In words: Antitumor activity against mouse L1210 cells. The class given is functional, cell-based.
Assay [2] is described as follows: Activation of calcium ATPase in sarcoplasmic reticulum at 100 uM.

In the case of `CC/C=C\C/C=C\C/C=C\C/C=C\CCCCC(=O)OCC(CO[C@@H]1O[C@H](CO[C@H]2O[C@H](CO)[C@H](O)[C@H](O)[C@H]2O)[C@H](O)[C@H](O)[C@H]1O)OC(=O)CCCC/C=C\C/C=C\C/C=C\C/C=C\CC` (some centres undefined), the 50% inhibitory concentration (IC50) in assay [1] was 20 µM.
Still for that read-out and setting: the result for `CC/C=C\C/C=C\C/C=C\C/C=C\CCCCC(=O)OCC(CO[C@@H]1O[C@H](CO)[C@H](O)[C@H](O)[C@H]1O)OC(=O)CCCC/C=C\C/C=C\C/C=C\C/C=C\CC` (some centres undefined) reads 20 µM.
The same measure, in the same setting: in the case of `CC/C=C\C/C=C\C/C=C\C/C=C\CCCCC(=O)OCC(O)CO[C@@H]1O[C@H](CO)[C@H](O)[C@H](O)[C@H]1O` (some centres undefined) it was 20 µM.
In the assay on L1210, `C=C1C/C=C/[C@H](O)[C@@H](O)C(=C)[C@@H](O)[C@H](O)C(=C)C/C=C/C(C)=C/C(=O)O[C@H]([C@@H]2O[C@H]2[C@@H](C)CCC)[C@@H](C)C1` [AMPHIDINOLIDE A] came in with a half-maximal inhibitory concentration (IC50) of 2.4 µg/mL (≈ 4.52 µM).
On the same count and under the same terms, in the case of `C=C1/C=C(\C)[C@](C)(O)C[C@H](O)CC(=O)[C@H](O)[C@@H](O)[C@H](C)C[C@H](C)OC(=O)/C(C)=C/CC/C=C/[C@@H]2O[C@H]2C[C@H](C)C1` [AMPHIDINOLIDE B] it was 0.00014 µg/mL (≈ 0.000249 µM); in that of `C=C1/C=C(\C)[C@@H](C)[C@@H](O)CC(=O)[C@@H](C)CC(=O)C[C@H]2CC[C@@H](O2)[C@H](/C=C/C=C(\C)[C@@H](O)C(=C)CCCC)OC(=O)C[C@@H]2O[C@H](C[C@H]2C)[C@H](O)[C@@H]1O` [AMPHIDINOLIDE C], 0.0058 µg/mL (≈ 0.00811 µM).
The molecule `C=C1/C=C(\C)[C@](C)(O)C[C@H](O)CC(=O)[C@@H](O)[C@@H](O)[C@H](C)C[C@H](C)OC(=O)/C(C)=C/CC/C=C/[C@@H]2O[C@H]2C[C@H](C)C1` [AMPHIDINOLIDE D] returned an IC50 with L1210 of 0.019 µg/mL (≈ 0.0338 µM).
As to `CCCCCCCCCCCCCC/C=C/C(O)C(=O)N[C@@H](CO)[C@H](O)CCCCCCCCCCCCCCC` (some centres undefined) [SYMBIORAMIDE], the Activity in assay [2] was 30%. Moreover, in the assay with L1210, it took 9.5 µg/mL (≈ 16.3 µM) to reach half-maximal inhibition (IC50).

As usually defined, the IC50 is the concentration at which inhibition is half-maximal.
